Patent publication US8048882B2, “Pharmaceutical compositions with increased activity” (priority 2003, dated 2011)
Like-named read-outs stand apart in the source and are kept apart here.

Assays:
Rotarod test = conditions: male, NMRI, mouse, in vivo, read-out: ED50, rotarod test in mice
Procedure: By the rotarod test (Dunnham, N. W., Miya, T. S. J. Am. Pharm. Assoc. 46, 208, 1957) impaired coordination and disorders of the voluntary movement as possible side effects can be studied. In this respect the change in the potency of the voltage-dependent sodium channel blockers caused by the serotonin uptake inhibitors was far less pronounced, resulting in a more favourable side effect profile of the combinations compared to that of the parent compounds.
The tests were carried out using male NMRI mice (19-21 g). Experiments performed with different pretreatment times produced similar results.

[1] = system: maximal electroshock seizures; assay: Inhibition of maximal electroshock seizures (MES); type: in vivo, mice; conditions: sodium channel blocker 30 minutes prior to electroshock
Procedure: Experiments in this respect were carried out on male NMRI mice (19-21 g).
Serotonin uptake inhibitors were administered i.p. 45 minutes, while sodium channel blockers 30 minutes prior to the electroshock.

[2] = system: GYKI 20039-induced tremor; assay: GYKI 20039-induced tremor test; type: in vivo, mice; conditions: for change of effectiveness in tremor test when a serotonin uptake inhibitor is present: with 10 mg/kg fluoxetine or 10 mg/kg sertraline i.p., FIG. 4
Procedure: Tremor can be induced by administration of GYKI 20039 (3-(2,6-diclorophenyl)-2-iminothiazolidine). The method was published by Kocsis P., Tarnawa I., Kovacs Gy., Szombathelyi Zs., Farkas S., 2002; Acta Pharmaceut. Hung., 72:49-61; U.S. Pat. No. 5,340,823, 1994, U.S. Pat. No. 5,198,446, JP 1992270293, EP 0468825, 1990 HU 4647.
Tests were carried out in male NMRI mice (19-21 g), the active substances were administered i.p., simultaneously.
Experiments with combinations containing the active agents in a fixed ratio were also performed.

[3] = system: phenylquinone-induced acute pain; assay: Phenylquinone-induced acute pain (writhing test); type: in vivo, mice; conditions: with 10 mg/kg fluoxetine given 15 minutes prior to lamotrigine (i.p.); FIG. 5
Source text: The method used was described by Hendershot and Forsaith in 1959. (Kazuko Goto et al. Analgesic Effect of Mofezolac, a Non-Steroidal Anti-Inflammatory Drug, Against Phenylquinone-Induced Acute Pain in Mice. Prostaglandins & other Lipid Mediators 56: 245-254; 1998, Prem Prakash Singh et al. Acetic Acid and Phenylquinone WrithingTest: A Critical Study in Mice. Meth and Find Exptl Clin Pharmacol 5(9): 601-606; 1983.) Acute pain was induced by injecting phenylquinone, an irritant, into the abdominal cavity (0.02% solution, 0.1 ml/10 g bodyweight). […] Experiments were performed in male NMRI mice (19-21 g).

[4] = system: spinal reflex (L5 ventral root reflex potential); assay: Inhibition of the spinal reflex in isolated hemisected spinal cord preparation, in vitro; set-up: species or system rat; conditions: alone
Procedure: Our experiments were performed according to the methods described by Otsuka and Konishi (Otsuka, M., Konishi, S. Electrophysiology of mammalian spinal cord in vitro. Nature 252, 733-734; 1974), with slight modifications (Kocsis, P. et al. Participation of AMPA- and NMDA-type excitatory amino acid receptors in the spinal reflex transmission, in rat. Brain Research Bulletin 60: 81-91; 2003). The L5 dorsal root of the isolated, hemisected spinal cord preparation was stimulated by supramaximal electrical impulse and the reflex potential from the L5 ventral root was recorded. Different components of the reflex potential obtained are well distinguishable based on their post-stimulus latencies and durations. […] This preparation is ideal for the investigation of pharmacodynamic interactions between two substances, since metabolic factors take no part in them. […] Cont (control)=effect of crobenitine in itself; as well as in the presence of fluoxetine (Fluo; 1 μM), sertraline (Sert; 0.5 μM), paroxetine (Paro; 10 nM) and citalopram (Cital; 5 nM).

[5] = in combination with fluoxetine (10 mg/kg)
[6] = in combination with sertraline (10 mg/kg)
[7] = with fluoxetine (10 mg/kg) i.p. 45 minutes
[8] = with sertraline (10 mg/kg) i.p. 45 minutes
[9] = 10 mg/kg intraperitoneal dose in mice

Which ED50 at 20 min (Rotarod test; alone) does the source give for `C[C@@H](CN1CC[C@@]2(C)c3cccc(O)c3C[C@@H]1C2(C)C)OCc1ccccc1` [crobenetine] here?
The ED50 at 20 min was 68.1 mg/kg.

What about the ED50 at 20 min (Rotarod test; [5]) of the same compound?
Its ED50 at 20 min is 38.6 mg/kg.

What about the ED50 at 35 min (Rotarod test; [5]) of the same compound?
The ED50 at 35 min was 51 mg/kg.

And the ED50 at 20 min (Rotarod test; [6])?
The ED50 at 20 min was 36.8 mg/kg.

What about the ED50 at 35 min (Rotarod test; [6]) of the same compound?
The ED50 at 35 min was 53.1 mg/kg.

What about the “ID50 (MES inhibition in mice)” value ([1]; alone) of the same compound?
The value was >>20.

And the ID50 (MES inhibition in mice) [1, 7]?
The ID50 (MES inhibition in mice) was 17 mg/kg.

What about the ID50 (MES inhibition in mice) [1, 8] of the same compound?
The ID50 (MES inhibition in mice) was 15.5 mg/kg.

And the “change of effectiveness in tremor test when a serotonin uptake inhibitor is present” value [2]?
The value was “increase of their effectiveness”.

With `Nc1nnc(-c2cccc(Cl)c2Cl)c(N)n1` [lamotrigine] as the compound, how does the ED50 at 20 min (Rotarod test; alone) read?
The ED50 at 20 min was 34.3 mg/kg.

And the ED50 at 20 min (Rotarod test; [5])?
The ED50 at 20 min was 28.5 mg/kg.

And the ED50 at 35 min (Rotarod test; [5])?
Its ED50 at 35 min is 31.1 mg/kg.

And the ED50 at 20 min (Rotarod test; [6])?
The ED50 at 20 min was 31.9 mg/kg.

And the ED50 at 35 min (Rotarod test; [6])?
Its ED50 at 35 min is 30.8 mg/kg.

And the “change in analgesic potency (ID50, writhing test) in the presence of a serotonin uptake inhibitor” value [3]?
Its value is “Increase in the analgesic potency”.

And the ID50 (MES inhibition in mice) ([1]; alone)?
Its ID50 (MES inhibition in mice) is 4.5 mg/kg.

What about the ID50 (MES inhibition in mice) [1, 7] of the same compound?
Its ID50 (MES inhibition in mice) is 1.3 mg/kg.

What about the ID50 (MES inhibition in mice) [1, 8] of the same compound?
Its ID50 (MES inhibition in mice) is 1.4 mg/kg.

What about the “ID50 (i.p.) (calculated for the sodium channel blocker in the combination)” value ([2]; tremor test, male NMRI mice, i.p., components administered simultaneously in fixed ratio) of the same compound?
Its value is 39.79 mg/kg.

What about the “change of effectiveness in tremor test when a serotonin uptake inhibitor is present” value [2] of the same compound?
The value was “increase of their effectiveness”.

With `CCc1ccc(C(=O)C(C)CN2CCCCC2)cc1` (stereo not shown) [eperisone] as the compound, how does the “spinal reflex inhibitory effect” value [4] read?
The value was “considerable spinal reflex inhibitory effect”.

For `Cc1ccc(C(=O)C(C)CN2CCCCC2)cc1` (stereo not shown) [tolperisone], which “spinal reflex inhibitory effect” value [4] is on record?
The value was “considerable spinal reflex inhibitory effect”.

For `CN[C@H]1CC[C@@H](c2ccc(Cl)c(Cl)c2)c2ccccc21` [sertraline], which ED50 at 20 min (Rotarod test; alone) is on record?
Its ED50 at 20 min is 112 mg/kg.

What about the ED50 at 35 min (Rotarod test; alone) of the same compound?
Its ED50 at 35 min is 120 mg/kg.

For `N=C1SCCN1c1c(Cl)cccc1Cl` [GYKI 20039, 3-(2,6-diclorophenyl)-2-iminothiazolidine], which “duration of induced tremor” value [2, 9] is on record?
The value was 30 to 60 min.

What about the tremor induction [2, 9] of the same compound?
Its tremor induction is “intensive tremor”.

What does the source list for `CNCCC(Oc1ccc(C(F)(F)F)cc1)c1ccccc1` (stereo not shown) [fluoxetine]?
ED50 at 20 min (Rotarod test; alone): 43.5 mg/kg; ED50 at 35 min (Rotarod test; alone): 45.8 mg/kg
